Test results published in ChEMBL document CHEMBL3351528, “Targeting dopamine D3 and serotonin 5-HT1A and 5-HT2A receptors for developing effective antipsychotics: synthesis, biological characterization, and behavioral studies” (J Med Chem, 2014).

How the values were obtained:
D(2) dopamine receptor = D(2) dopamine receptor (Homo sapiens, UniProt P14416)
Description: Binding affinity to dopamine D2 receptor (unknown origin)

[1] = molecular target: 5-hydroxytryptamine receptor 2A (Homo sapiens, UniProt P28223)
Description: Binding affinity to 5HT2A receptor (unknown origin)

Mus musculus [2] = test: Antipsychotic-like activity in orally dosed NMRI mouse assessed as reduction in MK801-induced locomotor activity dosed 15 to 30 mins before administration of MK801 measured for 60 mins; type: functional; conditions: po, read-out: MED
Mus musculus [3] = test: Antipsychotic-like activity in orally dosed NMRI mouse assessed as reduction in methamphetamine-induced locomotor activity dosed 15 to 30 mins before administration of methamphetamine measured for 60 mins; type: functional; conditions: po, read-out: MED
[4] = molecular target: T1, Adrenergic receptor alpha-2 (Homo sapiens, UniProt P08913+P18825+P18089); test: Binding affinity to alpha2 adrenoreceptor (unknown origin); type: protein assay
T1 sequence (P08913 whole entry): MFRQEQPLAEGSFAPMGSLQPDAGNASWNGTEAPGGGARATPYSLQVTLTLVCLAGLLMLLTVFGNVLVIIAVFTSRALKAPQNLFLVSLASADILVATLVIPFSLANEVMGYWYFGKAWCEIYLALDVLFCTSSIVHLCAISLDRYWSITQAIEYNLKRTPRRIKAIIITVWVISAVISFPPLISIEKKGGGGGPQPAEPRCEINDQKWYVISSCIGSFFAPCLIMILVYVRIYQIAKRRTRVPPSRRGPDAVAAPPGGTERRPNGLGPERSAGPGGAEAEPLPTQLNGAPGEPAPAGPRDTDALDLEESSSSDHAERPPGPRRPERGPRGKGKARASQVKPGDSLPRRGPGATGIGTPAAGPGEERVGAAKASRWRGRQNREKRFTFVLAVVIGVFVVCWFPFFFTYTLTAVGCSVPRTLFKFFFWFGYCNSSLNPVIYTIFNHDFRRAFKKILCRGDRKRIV
T1 sequence (P18825 whole entry): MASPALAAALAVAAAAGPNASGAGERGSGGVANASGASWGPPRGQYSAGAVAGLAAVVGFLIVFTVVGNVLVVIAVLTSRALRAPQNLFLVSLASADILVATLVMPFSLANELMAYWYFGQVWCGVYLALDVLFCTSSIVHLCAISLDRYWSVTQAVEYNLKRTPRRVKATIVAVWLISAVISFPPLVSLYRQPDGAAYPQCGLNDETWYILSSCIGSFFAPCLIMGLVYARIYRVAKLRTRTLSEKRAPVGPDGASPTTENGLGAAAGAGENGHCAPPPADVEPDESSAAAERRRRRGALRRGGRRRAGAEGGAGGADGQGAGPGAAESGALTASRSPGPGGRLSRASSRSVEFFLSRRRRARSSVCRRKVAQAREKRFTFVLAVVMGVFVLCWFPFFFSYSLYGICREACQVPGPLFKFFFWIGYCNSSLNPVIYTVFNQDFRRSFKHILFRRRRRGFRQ
T1 sequence (P18089 whole entry): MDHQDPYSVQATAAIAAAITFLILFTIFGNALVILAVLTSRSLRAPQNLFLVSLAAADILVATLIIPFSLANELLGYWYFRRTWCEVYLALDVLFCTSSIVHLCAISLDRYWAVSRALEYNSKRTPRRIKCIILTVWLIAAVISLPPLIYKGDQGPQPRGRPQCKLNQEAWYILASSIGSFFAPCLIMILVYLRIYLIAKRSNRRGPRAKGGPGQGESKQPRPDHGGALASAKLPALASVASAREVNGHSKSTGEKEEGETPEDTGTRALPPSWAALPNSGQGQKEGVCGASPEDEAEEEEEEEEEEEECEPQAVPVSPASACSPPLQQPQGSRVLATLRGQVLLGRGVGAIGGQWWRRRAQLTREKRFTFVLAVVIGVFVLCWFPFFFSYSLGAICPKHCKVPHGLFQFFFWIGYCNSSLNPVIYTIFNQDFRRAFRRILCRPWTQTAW

[5] = molecular target: 5-hydroxytryptamine receptor 2A (Rattus norvegicus, UniProt P14842); test: Antagonist activity at 5HT2A receptor in rat aortic rings assessed as reduction in 5-HT-induced contraction
[6] = molecular target: Voltage-gated inwardly rectifying potassium channel KCNH2 (Homo sapiens, UniProt Q12809); test: Inhibition of human ERG by whole cell based electrophysiology assay
hERG (KCNH2) [7] = molecular target: T2, hERG (KCNH2) (Homo sapiens, UniProt Q12809); test: Inhibition of human ERG at 1 uM by whole cell based electrophysiology assay
hERG (KCNH2) [8] = molecular target: T2, hERG (KCNH2); test: Inhibition of human ERG at 10 uM by whole cell based electrophysiology assay
Heart [9] = test: Cardiotoxicity in Langendorff-perfused Sprague-Dawley rat heart assessed as effect on left ventricle pressure up to 10 uM; type: toxicity, tissue-based
Heart [10] = test: Cardiotoxicity in Langendorff-perfused Sprague-Dawley rat heart assessed as effect on coronary perfusion pressure up to 10 uM; type: toxicity, tissue-based
Mus musculus [11] = test: Toxicity in mouse assessed as induction of memory impairment by measuring […] to enter dark compartment at 60 mg/kg, po administered 30 mins before training by passive avoidance test; type: organism-based; set-up: dose 60 mg/kg, route oral; conditions: in vivo, 0.5 h
Mus musculus [12] = test: Toxicity in mouse assessed as induction of memory impairment by measuring […] to enter dark compartment at 60 mg/kg, po administered 30 mins before training measured 24 hrs after acquisition trail by passive avoidance test; type: organism-based; set-up: dose 60 mg/kg, route oral; conditions: in vivo
[13] = molecular target: T3, 5-hydroxytryptamine receptor 1A (Homo sapiens, UniProt P08908)
T3 sequence (P08908 whole entry): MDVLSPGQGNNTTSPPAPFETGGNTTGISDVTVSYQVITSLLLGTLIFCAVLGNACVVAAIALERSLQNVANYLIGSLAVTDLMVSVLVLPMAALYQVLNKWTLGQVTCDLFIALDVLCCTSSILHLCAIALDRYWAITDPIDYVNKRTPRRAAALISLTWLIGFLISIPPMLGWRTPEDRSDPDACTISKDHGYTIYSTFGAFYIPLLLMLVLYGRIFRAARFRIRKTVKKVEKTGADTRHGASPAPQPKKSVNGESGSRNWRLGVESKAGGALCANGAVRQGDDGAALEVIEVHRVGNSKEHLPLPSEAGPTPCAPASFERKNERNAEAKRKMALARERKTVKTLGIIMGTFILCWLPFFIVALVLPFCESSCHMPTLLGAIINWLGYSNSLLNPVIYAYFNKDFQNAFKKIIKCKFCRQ
Description: Binding affinity to 5HT1A receptor (unknown origin)

T2 sequence (Q12809 whole entry): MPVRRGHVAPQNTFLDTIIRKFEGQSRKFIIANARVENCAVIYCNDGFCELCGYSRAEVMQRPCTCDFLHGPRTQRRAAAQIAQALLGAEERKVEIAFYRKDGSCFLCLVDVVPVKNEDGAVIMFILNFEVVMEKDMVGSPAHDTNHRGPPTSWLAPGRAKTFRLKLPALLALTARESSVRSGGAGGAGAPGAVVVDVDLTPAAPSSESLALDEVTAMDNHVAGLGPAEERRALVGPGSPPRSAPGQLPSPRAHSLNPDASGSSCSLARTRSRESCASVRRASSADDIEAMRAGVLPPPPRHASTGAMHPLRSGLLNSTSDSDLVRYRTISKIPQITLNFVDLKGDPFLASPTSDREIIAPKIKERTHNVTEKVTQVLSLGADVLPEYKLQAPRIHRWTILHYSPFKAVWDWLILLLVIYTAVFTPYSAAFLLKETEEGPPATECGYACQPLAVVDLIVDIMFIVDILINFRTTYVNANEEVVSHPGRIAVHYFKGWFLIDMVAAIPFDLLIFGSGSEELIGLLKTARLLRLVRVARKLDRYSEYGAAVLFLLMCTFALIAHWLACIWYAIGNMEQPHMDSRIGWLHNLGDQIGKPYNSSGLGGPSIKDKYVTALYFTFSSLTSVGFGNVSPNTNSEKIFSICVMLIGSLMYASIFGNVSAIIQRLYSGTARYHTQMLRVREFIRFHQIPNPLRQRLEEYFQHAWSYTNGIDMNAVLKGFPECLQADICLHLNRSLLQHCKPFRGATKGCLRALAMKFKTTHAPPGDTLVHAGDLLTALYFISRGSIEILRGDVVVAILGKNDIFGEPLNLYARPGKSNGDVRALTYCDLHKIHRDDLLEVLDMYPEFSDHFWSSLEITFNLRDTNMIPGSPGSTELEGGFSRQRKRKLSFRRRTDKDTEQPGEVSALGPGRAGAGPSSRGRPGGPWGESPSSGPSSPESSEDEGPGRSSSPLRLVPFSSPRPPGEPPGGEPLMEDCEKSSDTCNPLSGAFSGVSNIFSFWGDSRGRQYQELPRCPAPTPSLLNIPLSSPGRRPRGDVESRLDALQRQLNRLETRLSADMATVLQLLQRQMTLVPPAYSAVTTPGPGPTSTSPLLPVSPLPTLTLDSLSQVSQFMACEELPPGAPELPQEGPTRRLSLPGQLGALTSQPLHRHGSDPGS
Chain of 5-hydroxytryptamine receptor 2A (Rattus norvegicus, UniProt P14842) (P14842 whole entry): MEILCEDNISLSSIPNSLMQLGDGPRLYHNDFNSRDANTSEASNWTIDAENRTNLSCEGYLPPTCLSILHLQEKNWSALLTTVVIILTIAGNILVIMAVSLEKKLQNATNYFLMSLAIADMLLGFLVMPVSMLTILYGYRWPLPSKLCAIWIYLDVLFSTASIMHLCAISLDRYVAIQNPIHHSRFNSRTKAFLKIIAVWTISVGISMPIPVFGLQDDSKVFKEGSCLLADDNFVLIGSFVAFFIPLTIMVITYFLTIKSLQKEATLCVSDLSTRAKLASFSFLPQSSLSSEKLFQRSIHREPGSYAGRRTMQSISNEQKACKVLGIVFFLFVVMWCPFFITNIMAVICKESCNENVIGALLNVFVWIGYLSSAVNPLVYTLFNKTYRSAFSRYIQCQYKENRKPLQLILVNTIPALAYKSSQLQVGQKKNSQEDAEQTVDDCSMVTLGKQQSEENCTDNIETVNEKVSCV
Chain of 5-hydroxytryptamine receptor 2A (Homo sapiens, UniProt P28223) (P28223 whole entry): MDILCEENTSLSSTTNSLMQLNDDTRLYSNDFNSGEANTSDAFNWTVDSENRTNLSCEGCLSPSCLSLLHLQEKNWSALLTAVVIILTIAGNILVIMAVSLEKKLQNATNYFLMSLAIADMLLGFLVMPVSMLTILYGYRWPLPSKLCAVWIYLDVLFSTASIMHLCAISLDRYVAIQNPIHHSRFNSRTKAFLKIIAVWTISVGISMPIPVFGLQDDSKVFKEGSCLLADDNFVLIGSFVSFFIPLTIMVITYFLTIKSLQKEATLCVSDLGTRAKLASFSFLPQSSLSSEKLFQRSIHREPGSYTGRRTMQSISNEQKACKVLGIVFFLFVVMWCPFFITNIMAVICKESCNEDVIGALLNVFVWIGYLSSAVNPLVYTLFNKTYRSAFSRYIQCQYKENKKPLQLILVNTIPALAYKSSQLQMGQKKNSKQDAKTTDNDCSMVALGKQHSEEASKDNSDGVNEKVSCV
Chain of D(2) dopamine receptor (P14416 whole entry): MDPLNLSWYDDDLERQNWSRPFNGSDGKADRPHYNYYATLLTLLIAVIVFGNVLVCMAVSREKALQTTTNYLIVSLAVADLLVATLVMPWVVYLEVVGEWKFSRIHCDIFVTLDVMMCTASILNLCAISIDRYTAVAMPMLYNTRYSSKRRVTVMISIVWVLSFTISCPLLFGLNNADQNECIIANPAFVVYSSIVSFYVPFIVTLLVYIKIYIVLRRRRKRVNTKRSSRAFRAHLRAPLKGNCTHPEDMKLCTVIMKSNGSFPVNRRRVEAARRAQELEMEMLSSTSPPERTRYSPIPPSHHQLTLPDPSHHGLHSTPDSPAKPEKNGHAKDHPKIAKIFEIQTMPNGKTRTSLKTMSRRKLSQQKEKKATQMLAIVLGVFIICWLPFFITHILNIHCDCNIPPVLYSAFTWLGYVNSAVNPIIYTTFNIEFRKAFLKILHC
Chain of Voltage-gated inwardly rectifying potassium channel KCNH2 (Q12809 whole entry): as the sequence (Q12809 whole entry) above

Ki (D(2) dopamine receptor): > 1000 nM
Ki [1]: 66 nM
Ki [4]: 150 nM
IC50 [5]: 2600 nM
Ki [13]: 99 nM
Compound: O=C(NCCCCN1CCN(c2ccccc2)CC1)c1ccc2ncccc2c1
minimal effective dose (Mus musculus [2]): 10 mg/kg
minimal effective dose (Mus musculus [3]): > 30 mg/kg
IC50 [6]: 10 µM
inhibition at 1 µM (hERG (KCNH2) [7]): 10%
inhibition at 10 µM (hERG (KCNH2) [8]): 47%
Activity (Heart [9]): Non-toxic
Activity (Heart [10]): Non-toxic
Activity (Mus musculus [11]): Toxic
Activity (Mus musculus [12]): Non-toxic
